Assay: Change over time of contrast agent concentration in circulating blood (blood sampling after administration)
Format: in vivo, nude mice
Settings: threshold value of linearity R^2≧0.8
Source text: FIG. 2 is a graph illustrating contrast agent concentration change information obtained from a plurality of blood samplings of nude mice to which a contrast agent has been administered. The vertical axis represents the concentration of coloring material in blood, and the horizontal axis denotes the time elapsed since administration. The graph depicts specifically the change of the concentration after administration of contrast agent in an amount of 20 nanomoles of coloring material equivalent, to the caudal vein of the nude mice. […]
In a case where the contrast agent is administered into the circulating blood as one shot, the contrast agent concentration in the circulating blood decreases exponentially due to clearance with the passage of time, as illustrated in FIG. 2. […] When no signal is acquired within an appropriate lapse of time, therefore, the contrast agent in the circulating blood may in some instances fail to be quantified successfully. […] On the other hand, once a prolonged period of time has elapsed since administration, the contrast agent concentration in the circulating blood decreases, and becomes readily influenced by the sensitivity and/or measurement variability of the measuring instrument. […]

TIME [hr] (measurement time range over which concentration in blood decreases linearly on a semi-logarithmic axis): 0.08~0.5 hr
Structure (SMILES): CC1(C)C(/C=C/C=C/C=C/C=C2\N(CCCCS(=O)(=O)O)c3ccc4ccccc4c3C2(C)C)=[N+](CCCCS(=O)(=O)[O-])c2ccc3ccccc3c21 [ICG, indocyanine green]

Source: patent publication US20180055370A1, “PHOTOACOUSTIC APPARATUS” (CANON KABUSHIKI KAISHA, priority 2015, published 2018)
